Earlier results, collected in patent US20230025452A1, “ANTICANCER COMBINATION THERAPY” (Boehringer Ingelheim International GmbH, priority 2017, published 2023).

Legend:
[1] = tested on: solid tumor xenograft models and acute lymphoblastic leukemia (ALL) xenograft models; settings: Carol et al. 2013
[2] = tested on: human acute myeloid leukemia (AML) and human prostate tumor xenograft models harboring p53 wild-type; settings: Tovar et al. 2013

Structure (SMILES): CCOc1cc(C(C)(C)C)ccc1C1=N[C@@](C)(c2ccc(Cl)cc2)[C@@](C)(c2ccc(Cl)cc2)N1C(=O)N1CCN(CCCS(C)(=O)=O)CC1 [RG-7112]
- efficacy ([1]; ALL xenograft models with MLL rearrangement): particularly efficacious
- tumor growth inhibition ([1]; solid tumor xenograft models): induced tumor growth inhibition
- antiproliferative and proapoptotic activity [2]: antiproliferative and proapoptotic activity
